Assay results reported in patent US8846694B2, “Pyrrolidone derivatives for use as MetAP-2 inhibitors” (Merck Patent GmbH, priority 2008, dated 2014).
pIC50: −log10 of the molar value. In brackets after ≈: the same amount, converted by molar mass.

Experiments:
MetAP-2 = MetAP-2 (Homo sapiens, UniProt P50579); assay: MetAP-2 activity measurement (coupled enzymatic reactions, substrate Met-Arg-Ser, photometric at 450 nm); type: biochemical; details: read-out: IC50 enzyme (Inhibition of MetAP-2)
Outline: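 Human MetAP-2 cleaves Met-Arg-Ser; the freed methionine is oxidized by L-amino acid oxidase, and the resulting H2O2 drives peroxidase oxidation of dianisidine, read continuously at 450 nm. Activity is taken as the slope in the visually linear region.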

[1] = Shake flask solubility measurement; type: physicochemical; details: sodium phosphate/sodium chloride buffer, aqueous buffer, thermodynamic from solid; shake flask, buffer; shaken at 37° C. for 24 h
Experimental: Determination by Shake Flask Solubility Measurement
• Eluent A: 2 ml of diethylamine, for synthesis+1000 ml of methanol, LiChrosolv • Eluent B: 5 g of ammonium acetate, for analysis+5 ml of methanol, LiChrosolv+995 ml of ultrapure water Sample Solvent:
Buffer: 3.954 g of sodium dihydrogenphosphate monohydrate+6.024 g of sodium chloride+950 ml of ultrapure water the pH is adjusted using 0.1 M NaOH or 0.1 M HCl.
The samples are shaken at 37° C. and 450 rpm for 24 h.
After about 7 h, the pH of the samples is checked and adjusted if necessary. It is also checked whether the sample is still present in excess.
Just before the end of the 24 h shaking time, the samples are again checked for pH and a precipitate.

MetAP-2, sequence (P50579 whole entry, species assumed): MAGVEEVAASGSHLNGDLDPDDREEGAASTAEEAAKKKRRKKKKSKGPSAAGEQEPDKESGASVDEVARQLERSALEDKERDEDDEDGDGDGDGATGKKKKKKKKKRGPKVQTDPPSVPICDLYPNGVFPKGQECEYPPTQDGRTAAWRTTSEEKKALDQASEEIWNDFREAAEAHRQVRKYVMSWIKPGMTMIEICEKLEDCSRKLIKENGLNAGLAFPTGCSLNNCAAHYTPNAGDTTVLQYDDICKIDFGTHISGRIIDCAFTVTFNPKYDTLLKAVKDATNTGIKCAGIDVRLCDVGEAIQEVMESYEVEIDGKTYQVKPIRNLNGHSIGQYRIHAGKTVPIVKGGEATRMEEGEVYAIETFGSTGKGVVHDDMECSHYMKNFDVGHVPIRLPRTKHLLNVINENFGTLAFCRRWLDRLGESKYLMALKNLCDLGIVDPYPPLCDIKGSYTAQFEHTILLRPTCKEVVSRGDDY

melting point [°C] | pIC50 (MetAP-2) | solubility at 24 h [1] [µg/mL] | Compound
158 to 160 |  |  | O=C(c1ccc(CCC2CCCN2c2ncnc3[nH]cnc23)c2ccccc12)N1CCOCC1 (racemic) [A6, morpholin-4-yl-(4-{2-[-1-(9H-purin-6-yl)pyrrolidin-2-yl]ethyl}naphthalen-1-yl)methanone]
167 to 168 | 6.00 to 8.00 |  | O=Cc1ccc(OC[C@H]2CCCN2c2ncnc3[nH]cnc23)c2ccccc12 [A2, 4-[(R)-1-(9H-purin-6-yl)pyrrolidin-2-ylmethoxy]naphthalene-1-carbaldehyde]
143 to 144 | 5.00 to 6.00 |  | F[C@H]1C[C@H](COc2ccccc2Cl)N(c2ncnc3[nH]cnc23)C1 [A7, 6-[(2R,4S)-2-(2-chlorophenoxymethyl)-4-fluoropyrrolidin-1-yl]-9H-purine]
 |  | 108 (≈ 237 µM) | O=C(c1ccc(CC[C@H]2CCCN2c2ncnc3[nH]cnc23)c2ccccc12)N1CCOCC1 [Morpholin-4-yl-(4-{2-[(S)-1-(9H-purin-6-yl)pyrrolidin-2-yl]ethyl}naphthalen-1-yl)-methanone]
 |  | 29 (≈ 67.1 µM) | CNC(=O)/C=C1/CCc2c(OC[C@H]3CCCN3c3ncnc4[nH]cnc34)cccc2C1=O [N-methyl-2-[1-oxo-5-[(R)-1-(9H-purin-6-yl)pyrrolidin-2-ylmethoxy]-3,4-dihydro-1H-naphthalen-(2Z)-ylidene]acetamide]
 |  | > 3800 | O=C(O)/C=C1/CCc2c(OC[C@H]3CCCN3c3ncnc4[nH]cnc34)cccc2C1=O [[1-oxo-5-[(R)-1-(9H-purin-6-yl)pyrrolidin-2-ylmethoxy]-3,4-dihydro-1H-naphthalen-(2Z)-ylidene]acetic acid]
